# Target: T1, aldosterone receptor (Rattus norvegicus, UniProt P22199)
# T1 construct: centrifuged at 105,000 g for 30 minutes, and then a supernatant was collected as a renal soluble fraction; from tissue; host or cells: rat kidney (adrenalectomized rat), 105,000 g supernatant (cytosol)
# T1 sequence (P22199 1-981): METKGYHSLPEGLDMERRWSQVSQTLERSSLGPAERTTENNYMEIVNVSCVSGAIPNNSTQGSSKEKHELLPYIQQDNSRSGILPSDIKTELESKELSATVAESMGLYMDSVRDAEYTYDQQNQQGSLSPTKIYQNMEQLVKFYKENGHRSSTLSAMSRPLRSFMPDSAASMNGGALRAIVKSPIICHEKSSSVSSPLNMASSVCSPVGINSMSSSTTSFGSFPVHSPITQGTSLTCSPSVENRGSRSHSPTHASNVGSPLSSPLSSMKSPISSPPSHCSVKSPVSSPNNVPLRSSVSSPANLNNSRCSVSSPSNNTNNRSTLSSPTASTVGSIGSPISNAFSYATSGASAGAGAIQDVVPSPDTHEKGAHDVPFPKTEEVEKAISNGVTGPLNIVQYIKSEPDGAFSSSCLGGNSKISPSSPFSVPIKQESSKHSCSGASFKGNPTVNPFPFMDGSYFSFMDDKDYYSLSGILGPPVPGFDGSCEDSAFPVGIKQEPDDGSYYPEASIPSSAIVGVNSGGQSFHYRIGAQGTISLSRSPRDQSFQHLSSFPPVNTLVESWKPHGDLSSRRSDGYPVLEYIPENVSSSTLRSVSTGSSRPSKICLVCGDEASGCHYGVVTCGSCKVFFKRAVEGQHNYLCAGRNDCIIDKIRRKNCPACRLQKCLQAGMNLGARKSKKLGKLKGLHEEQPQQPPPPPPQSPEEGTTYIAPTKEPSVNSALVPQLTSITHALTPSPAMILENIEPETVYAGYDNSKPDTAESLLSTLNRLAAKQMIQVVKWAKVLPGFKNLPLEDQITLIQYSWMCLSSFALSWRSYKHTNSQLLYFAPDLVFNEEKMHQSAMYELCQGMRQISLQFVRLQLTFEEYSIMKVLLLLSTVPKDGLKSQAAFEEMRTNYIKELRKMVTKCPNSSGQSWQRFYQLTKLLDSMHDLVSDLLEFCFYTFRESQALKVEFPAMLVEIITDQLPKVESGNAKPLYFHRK
# Experiment: Binding inhibition test for aldosterone receptor ([3H]aldosterone, rat renal soluble fraction)
# Conditions: [3H]aldosterone 2 nM, rat renal soluble fraction, in the presence of 2 μM RU-486, 4° C. about 18 hours; read-out: MR IC50
# Protocol: Binding Inhibition Test for Aldosterone Receptor
# A rat was layed open in flank regions (on both sides) to remove both adrenal glands. After stitching up the incision, the rat was returnd to a breeding cage again. After removing the kidney from the rat reared for about 3 to 5 days, the kidney was homogenized in 0.1 M Tris-HCl, 0.25M sucrose, 0.1M Na2MoO4 and 2 mM DTT buffer solution (pH7.4). The resultant was centrifuged at 105,000 g for 30 minutes, and then a supernatant was collected as a renal soluble fraction.
# The rat renal soluble fraction (0.5 to 1.5 mg), a labeled ligand [^3H] aldosterone (2 nM) and a test article were reacted in the presence of 2 μM RU-486 (glucocorticoid receptor antagonist) in 100 μL of total amounts at 4° C. for about 18 hours. Afterwards, to the reaction solution was added 50 μL of 5% dextran-coated activated charcoal, and the mixture was immingled, and then centrifuged at 3,000 g for 5 minutes. Then, a supernatant (100 μL) was collected and mixed with a liquid scintillator ACS-II (Amersham) (3.5 mL), and then analyzed its radioactivity by a liquid scintillation counter (manufactured by Packard, Tri Carb 2700TR). A non-specific binding was obtained by addition of 2 μM aldosterone to a reaction solution. […]
# Binding inhibition rate (%)=100−{(B−N)/(B0−N)}×100
# B: labeled ligand binding amounts in the presence of a test article and a labeled ligand
# B0: labeled ligand binding amounts in the absence of a test article
# N: labeled ligand binding amounts in the presence of excess aldosterone (2 μM)
# Test example 1 was carried out for compounds obtained in the Examples.
row,Compound,IC50
1,COc1cc(NC(=O)c2ccc(-c3ccccc3C(F)(F)F)c(CN3CCOCC3)c2)ccc1S(N)(=O)=O [Example 79],0.32 µM
2,COc1cc(NC(=O)c2ccc(-c3ccccc3C(F)(F)F)c(CCl)c2)ccc1S(N)(=O)=O [Example 81],0.12 µM
3,COc1cc(NC(=O)c2ccc(-c3ccccc3C(F)(F)F)c(CNC(C)C)c2)ccc1S(N)(=O)=O [Example 85],0.54 µM
4,COc1cc(NC(=O)c2ccc(-c3ccccc3C(F)(F)F)c(CNC[C@H]3CCCO3)c2)ccc1S(N)(=O)=O [Example 91],0.26 µM
5,COc1cc(NC(=O)c2ccc(-c3ccccc3C(F)(F)F)c(CNCC3CC3)c2)ccc1S(N)(=O)=O [Example 92],0.41 µM
6,COc1cc(NC(=O)c2ccc(-c3ccccc3C(F)(F)F)c(CN3CCC3)c2)ccc1S(N)(=O)=O [Example 94],0.82 µM
7,COc1cc(NC(=O)c2ccc(-c3ccccc3C(F)(F)F)c(COCC3CCCN(C)C3)c2)ccc1S(N)(=O)=O (stereo not shown) [Example 99],2 µM
8,COc1cc(NC(=O)c2ccc(-c3ccccc3C(F)(F)F)c(COCCCO)c2)ccc1S(N)(=O)=O [Example 103],0.13 µM
9,COc1cc(NC(=O)c2ccc(-c3ccccc3C(F)(F)F)c(COCC(OC)OC)c2)ccc1S(N)(=O)=O [Example 104],0.082 µM
10,COc1cc(NC(=O)c2ccc(-c3ccccc3C(F)(F)F)c(OCCOCc3ccccc3)c2)ccc1S(N)(=O)=O [Example 109],0.19 µM
11,COc1cc(NC(=O)c2ccc(-c3ccccc3C(F)(F)F)c(OCCO)c2)ccc1S(N)(=O)=O [Example 121],0.52 µM
12,COc1cc(NC(=O)c2ccc(-c3ccccc3OC(F)(F)F)c(CO)c2)ccc1S(N)(=O)=O [Example 122],0.06 µM
13,CCc1ccccc1-c1ccc(C(=O)Nc2ccc(S(N)(=O)=O)c(OC)c2)cc1CO [Example 126],0.31 µM
14,COc1cc(NC(=O)c2ccc(-c3ccc(F)cc3C(F)(F)F)c(CO)c2)ccc1S(N)(=O)=O [Example 127],0.22 µM
15,COc1ccc(-c2ccc(C(=O)Nc3ccc(S(N)(=O)=O)c(OC)c3)cc2CO)c(C(F)(F)F)c1 [Example 128],0.14 µM
16,CCNc1cc(C(=O)Nc2ccc(S(N)(=O)=O)c(OC)c2)ccc1-c1ccccc1C(F)(F)F [Example 131],0.17 µM
17,CCN(CC)c1cc(C(=O)Nc2ccc(S(N)(=O)=O)c(OC)c2)ccc1-c1ccccc1C(F)(F)F [Example 132],0.29 µM
18,CS(=O)(=O)c1ccc(NC(=O)c2ccc(-c3ccccc3OC(F)(F)F)c(CN3CCSCC3)c2)cc1 [Example 136],0.4 µM
19,CS(=O)(=O)c1ccc(NC(=O)c2ccc(-c3ccccc3OC(F)(F)F)c(CN3CCC(F)(F)C3)c2)cc1 [Example 142],0.42 µM
20,CS(=O)(=O)c1ccc(NC(=O)c2ccc(-c3ccccc3OC(F)(F)F)c(CN3CCCC(F)(F)C3)c2)cc1 [Example 144],0.5 µM
21,CS(=O)(=O)c1ccc(NC(=O)c2ccc(-c3ccccc3OC(F)(F)F)c(CNC[C@H]3CCCO3)c2)cc1 [Example 147],< 10 µM
22,Cn1ccc(CNCc2cc(C(=O)Nc3ccc(S(C)(=O)=O)cc3)ccc2-c2ccccc2OC(F)(F)F)n1 [Example 153],0.47 µM
23,CCN(CC)Cc1cc(C(=O)Nc2ccc(S(C)(=O)=O)cc2)ccc1-c1ccccc1OC(F)(F)F [Example 159],0.29 µM
24,CS(=O)(=O)c1ccc(NC(=O)c2ccc(-c3ccccc3OC(F)(F)F)c(CN3CCCC3)c2)cc1 [Example 160],2 µM
25,CS(=O)(=O)c1ccc(NC(=O)c2ccc(-c3ccccc3OC(F)(F)F)c(CN3CCOCC3)c2)cc1 [Example 162],0.66 µM
26,CS(=O)(=O)c1ccc(NC(=O)c2ccc(-c3ccccc3OC(F)(F)F)c(CN3CCCOCC3)c2)cc1 [Example 163],< 10 µM

row,Compound,IC50
1,CS(=O)(=O)c1ccc(NC(=O)c2ccc(-c3ccccc3OC(F)(F)F)c(CN3CC(F)(F)C3)c2)cc1 [Example 171],< 10 µM
2,CS(=O)(=O)c1ccc(NC(=O)c2ccc(-c3ccccc3OC(F)(F)F)c(CN3CCC(F)(F)CC3)c2)cc1 [Example 174],0.94 µM
3,CS(=O)(=O)c1ccc(NC(=O)c2ccc(-c3ccccc3OC(F)(F)F)c(CNCC(F)F)c2)cc1 [Example 176],0.39 µM
4,CS(=O)(=O)c1ccc(NC(=O)c2ccc(-c3ccccc3OC(F)(F)F)c(CNCc3ccccc3)c2)cc1 [Example 180],0.28 µM
5,Cn1cccc1CNCc1cc(C(=O)Nc2ccc(S(C)(=O)=O)cc2)ccc1-c1ccccc1OC(F)(F)F [Example 182],0.35 µM
6,CCN(Cc1ccccc1)Cc1cc(C(=O)Nc2ccc(S(C)(=O)=O)cc2)ccc1-c1ccccc1OC(F)(F)F [Example 189],< 10 µM
7,CS(=O)(=O)c1ccc(NC(=O)c2ccc(-c3ccccc3OC(F)(F)F)c(CNCCOc3ccccc3)c2)cc1 [Example 190],< 10 µM
8,CN(Cc1cc(C(=O)Nc2ccc(S(C)(=O)=O)cc2)ccc1-c1ccccc1OC(F)(F)F)C1CCCCC1 [Example 202],0.76 µM
9,CCC(C)(C)NCc1cc(C(=O)Nc2ccc(S(C)(=O)=O)cc2)ccc1-c1ccccc1OC(F)(F)F [Example 206],< 10 µM
10,CS(=O)(=O)c1ccc(NC(=O)c2ccc(-c3ccccc3OC(F)(F)F)c(CN[C@H]3CCCc4ccccc43)c2)cc1 [Example 211],0.91 µM
11,Cn1ccnc1CNCc1cc(C(=O)Nc2ccc(S(C)(=O)=O)cc2)ccc1-c1ccccc1OC(F)(F)F [Example 218],0.37 µM
12,CS(=O)(=O)c1ccc(NC(=O)c2ccc(-c3ccccc3OC(F)(F)F)c(CNCC3CCCCC3)c2)cc1 [Example 221],< 10 µM
13,CC(C)CCNCc1cc(C(=O)Nc2ccc(S(C)(=O)=O)cc2)ccc1-c1ccccc1OC(F)(F)F [Example 226],< 10 µM
14,CS(=O)(=O)c1ccc(NC(=O)c2ccc(-c3ccccc3OC(F)(F)F)c(CN[C@@H]3CCCc4ccccc43)c2)cc1 [Example 229],< 0.1 µM
15,CN(Cc1ccc(F)cc1)Cc1cc(C(=O)Nc2ccc(S(C)(=O)=O)cc2)ccc1-c1ccccc1OC(F)(F)F [Example 231],< 10 µM
16,COc1cc(NC(=O)c2ccc(-c3ccccc3C(F)(F)F)c(C(O)C(F)(F)F)c2)ccc1S(N)(=O)=O (stereo not shown) [Example 244],0.68 µM
17,COc1cc(NC(=O)c2ccc(-c3ccccc3-c3cccs3)c(CO)c2)ccc1S(N)(=O)=O [Example 257],0.084 µM
18,COc1cc(NC(=O)c2ccc(-c3ccccc3-c3nc(C)no3)c(CO)c2)ccc1S(N)(=O)=O [Example 259],0.45 µM
19,COc1cc(NC(=O)c2ccc(-c3ccccc3OC(F)(F)C(F)F)c(CO)c2)ccc1S(N)(=O)=O [Example 260],0.44 µM
20,CCN(CC)c1cc(C(=O)Nc2ccc(S(N)(=O)=O)cc2)ccc1-c1ccccc1OC(F)(F)F [Example 265],0.36 µM
21,COc1cc(NC(=O)c2ccc(-c3ccccc3C(F)(F)F)c(CNCC(F)F)c2)ccc1S(N)(=O)=O [Example 268],0.99 µM
22,COc1ccc(-c2ccc(C(=O)Nc3ccc(S(N)(=O)=O)c(OC)c3)cc2CNCC(F)F)c(C(F)(F)F)c1 [Example 270],0.65 µM
23,COc1cc(NC(=O)c2ccc(-c3ccc(N)cc3C(F)(F)F)c(C)c2)ccc1S(N)(=O)=O [Example 271],0.37 µM
24,COc1cc(NC(=O)c2ccc(-c3ccc(O)cc3C(F)(F)F)c(C)c2)ccc1S(N)(=O)=O [Example 272],0.4 µM
25,COc1cc(NC(=O)c2ccc(-c3ncccc3C(F)(F)F)c(C)c2)ccc1S(N)(=O)=O [Example 279],4.1 µM
26,COc1cc(NC(=O)c2ccc(-c3cccnc3C3CCC3)c(C)c2)ccc1S(N)(=O)=O [Example 282],0.73 µM

# Source: US20130116227A1, “BIARYL AMIDE DERIVATIVE OR PHARMACEUTICALLY ACCEPTABLE SALT THEREOF” (DAINIPPON SUMITOMO PHARMA CO., LTD., priority 2010, published 2013)
